According to the kinase profiling compilation of Christmann-Franck et al. (2016):

Columns and labels:
Assay in all cases: KINOMEscan competition binding
Conditions in all cases: compound 10.0 µM
TLK1 (human) = TLK1 (human) (UniProt Q9UKI8)
[1] = system: EIF2AK4 KD2 (human), Q9P2K8 [S808G]
NEK5 (human) = NEK5 (human) (UniProt Q6P3R8)
PTK6 (human) = PTK6 (human) (UniProt Q13882)
NUAK2 (human) = NUAK2 (human) (UniProt Q9H093)
TNIK (human) = TNIK (human) (UniProt Q9UKE5)
CAMK4 (human) = CAMK4 (human) (UniProt Q16566)
CIT (human) = CIT (human) (UniProt O14578)
ABL2 (human) = ABL2 (human) (UniProt P42684)
ABL2 (human), sequence (P42684 whole entry, looked up): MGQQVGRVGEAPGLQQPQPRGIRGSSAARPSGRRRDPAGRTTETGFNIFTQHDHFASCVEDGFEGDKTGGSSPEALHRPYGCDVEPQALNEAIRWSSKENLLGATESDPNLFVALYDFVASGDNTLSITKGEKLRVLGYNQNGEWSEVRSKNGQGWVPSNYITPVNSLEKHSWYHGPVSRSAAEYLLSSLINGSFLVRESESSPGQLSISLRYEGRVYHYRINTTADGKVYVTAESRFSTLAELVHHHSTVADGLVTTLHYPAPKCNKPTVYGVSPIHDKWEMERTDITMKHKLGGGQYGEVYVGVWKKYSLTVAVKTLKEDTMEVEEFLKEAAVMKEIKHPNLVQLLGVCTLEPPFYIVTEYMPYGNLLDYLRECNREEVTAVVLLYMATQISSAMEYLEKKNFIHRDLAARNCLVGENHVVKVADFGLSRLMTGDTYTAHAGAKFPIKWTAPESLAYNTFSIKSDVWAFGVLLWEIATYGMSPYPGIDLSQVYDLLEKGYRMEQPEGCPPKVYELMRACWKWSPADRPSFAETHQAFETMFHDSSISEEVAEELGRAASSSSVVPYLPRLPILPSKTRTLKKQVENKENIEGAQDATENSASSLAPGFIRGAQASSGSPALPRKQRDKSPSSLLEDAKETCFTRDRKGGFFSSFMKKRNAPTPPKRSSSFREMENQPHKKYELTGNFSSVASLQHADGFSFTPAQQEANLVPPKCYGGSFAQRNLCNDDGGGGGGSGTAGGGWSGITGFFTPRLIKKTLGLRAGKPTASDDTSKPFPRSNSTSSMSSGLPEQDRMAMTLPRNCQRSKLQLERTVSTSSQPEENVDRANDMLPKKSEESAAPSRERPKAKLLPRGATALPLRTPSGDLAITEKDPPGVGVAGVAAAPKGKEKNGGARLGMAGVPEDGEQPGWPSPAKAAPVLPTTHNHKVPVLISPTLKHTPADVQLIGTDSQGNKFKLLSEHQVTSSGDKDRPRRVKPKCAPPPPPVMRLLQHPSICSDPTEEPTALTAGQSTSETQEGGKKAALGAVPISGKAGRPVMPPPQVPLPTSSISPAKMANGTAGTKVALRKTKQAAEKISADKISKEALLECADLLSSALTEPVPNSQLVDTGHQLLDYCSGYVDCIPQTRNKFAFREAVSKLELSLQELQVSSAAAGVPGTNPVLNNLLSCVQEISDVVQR

STK35 (human) = STK35 (human) (UniProt Q8TDR2)
ANKK1 (human) = ANKK1 (human) (UniProt Q8NFD2)
PRKCD (human) = PRKCD (human) (UniProt Q05655)
AURKC (human) = AURKC (human) (UniProt Q9UQB9)
PLK3 (human) = PLK3 (human) (UniProt Q9H4B4)
BLK (human) = BLK (human) (UniProt P51451)
CSNK1E (human) = CSNK1E (human) (UniProt P49674)
NTRK1 (human) = NTRK1 (human) (UniProt P04629)
NTRK1 (human), sequence (P04629 whole entry, looked up): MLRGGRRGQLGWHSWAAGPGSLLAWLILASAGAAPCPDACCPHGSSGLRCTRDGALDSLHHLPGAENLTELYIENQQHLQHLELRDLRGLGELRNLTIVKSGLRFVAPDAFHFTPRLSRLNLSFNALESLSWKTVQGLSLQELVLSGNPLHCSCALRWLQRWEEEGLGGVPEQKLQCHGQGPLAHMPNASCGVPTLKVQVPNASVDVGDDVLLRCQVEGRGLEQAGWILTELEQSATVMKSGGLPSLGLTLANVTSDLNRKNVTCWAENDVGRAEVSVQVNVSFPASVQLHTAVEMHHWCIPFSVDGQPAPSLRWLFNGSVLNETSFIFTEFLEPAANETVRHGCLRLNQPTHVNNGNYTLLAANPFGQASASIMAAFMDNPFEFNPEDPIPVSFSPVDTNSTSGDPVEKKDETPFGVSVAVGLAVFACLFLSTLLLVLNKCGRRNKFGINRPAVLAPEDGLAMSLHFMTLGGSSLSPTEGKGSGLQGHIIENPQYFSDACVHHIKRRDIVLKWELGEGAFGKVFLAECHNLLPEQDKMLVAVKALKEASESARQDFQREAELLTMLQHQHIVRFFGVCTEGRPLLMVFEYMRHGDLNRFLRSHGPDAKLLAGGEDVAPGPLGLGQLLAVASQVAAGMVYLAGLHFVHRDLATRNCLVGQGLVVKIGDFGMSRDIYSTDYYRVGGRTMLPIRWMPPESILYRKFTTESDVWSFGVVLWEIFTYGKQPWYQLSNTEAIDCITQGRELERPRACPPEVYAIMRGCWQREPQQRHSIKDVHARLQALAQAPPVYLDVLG

PDPK1 (human) = PDPK1 (human) (UniProt O15530)
PDPK1 (human), sequence (O15530 whole entry, looked up): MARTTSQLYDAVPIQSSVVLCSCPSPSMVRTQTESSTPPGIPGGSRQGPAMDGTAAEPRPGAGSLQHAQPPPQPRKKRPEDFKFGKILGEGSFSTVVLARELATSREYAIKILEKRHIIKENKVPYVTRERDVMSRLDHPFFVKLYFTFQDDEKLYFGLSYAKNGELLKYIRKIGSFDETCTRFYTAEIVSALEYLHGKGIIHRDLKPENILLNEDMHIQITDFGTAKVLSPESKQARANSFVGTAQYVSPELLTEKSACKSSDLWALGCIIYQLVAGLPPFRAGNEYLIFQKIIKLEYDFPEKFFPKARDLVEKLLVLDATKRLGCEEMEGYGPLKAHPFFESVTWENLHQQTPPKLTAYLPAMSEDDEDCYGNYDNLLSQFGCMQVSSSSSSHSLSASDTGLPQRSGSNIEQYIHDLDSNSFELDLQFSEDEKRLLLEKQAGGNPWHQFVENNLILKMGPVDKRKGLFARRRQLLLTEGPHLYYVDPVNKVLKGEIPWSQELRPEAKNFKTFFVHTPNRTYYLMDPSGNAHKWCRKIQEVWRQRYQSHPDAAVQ

MAP4K5 (human) = MAP4K5 (human) (UniProt Q9Y4K4)
DAPK3 (human) = DAPK3 (human) (UniProt O43293)
MAP3K3 (human) = MAP3K3 (human) (UniProt Q99759)
MAP3K3 (human), sequence (Q99759 whole entry, looked up): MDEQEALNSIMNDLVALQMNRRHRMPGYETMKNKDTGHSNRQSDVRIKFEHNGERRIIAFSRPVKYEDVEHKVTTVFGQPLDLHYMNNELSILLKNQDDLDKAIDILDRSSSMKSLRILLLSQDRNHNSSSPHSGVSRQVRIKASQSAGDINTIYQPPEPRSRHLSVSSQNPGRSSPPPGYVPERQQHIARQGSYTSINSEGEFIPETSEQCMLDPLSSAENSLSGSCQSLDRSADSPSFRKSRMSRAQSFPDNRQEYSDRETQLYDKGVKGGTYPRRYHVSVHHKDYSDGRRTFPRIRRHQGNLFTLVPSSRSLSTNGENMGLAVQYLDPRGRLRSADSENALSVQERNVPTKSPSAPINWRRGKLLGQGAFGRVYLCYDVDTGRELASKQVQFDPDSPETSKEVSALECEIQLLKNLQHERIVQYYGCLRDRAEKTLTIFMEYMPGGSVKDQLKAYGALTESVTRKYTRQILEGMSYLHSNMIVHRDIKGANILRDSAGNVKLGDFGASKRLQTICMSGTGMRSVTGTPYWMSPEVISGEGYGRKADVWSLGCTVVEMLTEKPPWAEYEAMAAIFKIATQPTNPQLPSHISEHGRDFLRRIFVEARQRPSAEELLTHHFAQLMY

EPHA7 (human) = EPHA7 (human) (UniProt Q15375)
PIP4K2B (human) = PIP4K2B (human) (UniProt P78356)
PIP4K2B (human), sequence (P78356 whole entry, looked up): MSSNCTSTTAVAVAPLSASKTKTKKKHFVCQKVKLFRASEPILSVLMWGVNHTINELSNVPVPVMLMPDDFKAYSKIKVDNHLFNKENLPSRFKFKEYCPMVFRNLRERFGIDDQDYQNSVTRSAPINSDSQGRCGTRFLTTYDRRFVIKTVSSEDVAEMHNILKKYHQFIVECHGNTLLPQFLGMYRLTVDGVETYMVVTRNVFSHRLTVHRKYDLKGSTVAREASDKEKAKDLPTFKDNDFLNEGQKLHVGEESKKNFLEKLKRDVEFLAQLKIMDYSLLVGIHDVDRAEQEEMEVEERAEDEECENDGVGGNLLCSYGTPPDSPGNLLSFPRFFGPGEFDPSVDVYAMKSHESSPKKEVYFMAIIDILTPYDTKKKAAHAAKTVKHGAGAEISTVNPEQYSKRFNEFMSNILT

CAMK1G (human) = CAMK1G (human) (UniProt Q96NX5)
PTK2B (human) = PTK2B (human) (UniProt Q14289)
WEE2 (human) = WEE2 (human) (UniProt P0C1S8)
MAP3K4 (human) = MAP3K4 (human) (UniProt Q9Y6R4)
TSSK1B (human) = TSSK1B (human) (UniProt Q9BXA7)
MELK (human) = MELK (human) (UniProt Q14680)
PKN1 (human) = PKN1 (human) (UniProt Q16512)
CaMK1 (human) = CaMK1 (human) (UniProt Q14012)
RIOK1 (human) = RIOK1 (human) (UniProt Q9BRS2)
MAPK11 (human) = MAPK11 (human) (UniProt Q15759)
MYLK (human) = MYLK (human) (UniProt Q15746)
TNNI3K (human) = TNNI3K (human) (UniProt Q59H18)
TNK1 (human) = TNK1 (human) (UniProt Q13470)
CDK14 (human) = CDK14 (human) (UniProt O94921)
CSNK1G3 (human) = CSNK1G3 (human) (UniProt Q9Y6M4)
BRSK2 (human) = BRSK2 (human) (UniProt Q8IWQ3)
BRSK2 (human), sequence (Q8IWQ3 whole entry, looked up): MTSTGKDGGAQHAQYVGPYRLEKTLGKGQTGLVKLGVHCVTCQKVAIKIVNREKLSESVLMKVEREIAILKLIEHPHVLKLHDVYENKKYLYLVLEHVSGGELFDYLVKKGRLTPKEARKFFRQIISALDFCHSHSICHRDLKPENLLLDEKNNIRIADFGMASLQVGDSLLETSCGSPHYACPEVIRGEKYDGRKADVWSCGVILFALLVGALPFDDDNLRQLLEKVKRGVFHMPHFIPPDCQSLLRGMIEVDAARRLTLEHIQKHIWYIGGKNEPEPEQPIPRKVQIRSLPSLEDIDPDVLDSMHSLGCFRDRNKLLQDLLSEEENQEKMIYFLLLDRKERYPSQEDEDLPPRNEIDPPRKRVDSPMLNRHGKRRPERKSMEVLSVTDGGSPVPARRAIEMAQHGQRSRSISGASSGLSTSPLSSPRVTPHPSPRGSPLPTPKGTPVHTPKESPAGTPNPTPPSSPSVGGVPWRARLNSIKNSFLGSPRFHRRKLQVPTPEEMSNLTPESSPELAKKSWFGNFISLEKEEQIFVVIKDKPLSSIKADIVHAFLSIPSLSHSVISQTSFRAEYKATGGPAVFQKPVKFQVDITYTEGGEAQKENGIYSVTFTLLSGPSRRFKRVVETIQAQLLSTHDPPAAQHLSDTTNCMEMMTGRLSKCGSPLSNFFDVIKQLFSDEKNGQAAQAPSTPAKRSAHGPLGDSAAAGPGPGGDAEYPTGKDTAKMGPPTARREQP

[2] = system: FLT3 (human), P36888 [N841I]

NEK5 (human), sequence (Q6P3R8 whole entry, looked up): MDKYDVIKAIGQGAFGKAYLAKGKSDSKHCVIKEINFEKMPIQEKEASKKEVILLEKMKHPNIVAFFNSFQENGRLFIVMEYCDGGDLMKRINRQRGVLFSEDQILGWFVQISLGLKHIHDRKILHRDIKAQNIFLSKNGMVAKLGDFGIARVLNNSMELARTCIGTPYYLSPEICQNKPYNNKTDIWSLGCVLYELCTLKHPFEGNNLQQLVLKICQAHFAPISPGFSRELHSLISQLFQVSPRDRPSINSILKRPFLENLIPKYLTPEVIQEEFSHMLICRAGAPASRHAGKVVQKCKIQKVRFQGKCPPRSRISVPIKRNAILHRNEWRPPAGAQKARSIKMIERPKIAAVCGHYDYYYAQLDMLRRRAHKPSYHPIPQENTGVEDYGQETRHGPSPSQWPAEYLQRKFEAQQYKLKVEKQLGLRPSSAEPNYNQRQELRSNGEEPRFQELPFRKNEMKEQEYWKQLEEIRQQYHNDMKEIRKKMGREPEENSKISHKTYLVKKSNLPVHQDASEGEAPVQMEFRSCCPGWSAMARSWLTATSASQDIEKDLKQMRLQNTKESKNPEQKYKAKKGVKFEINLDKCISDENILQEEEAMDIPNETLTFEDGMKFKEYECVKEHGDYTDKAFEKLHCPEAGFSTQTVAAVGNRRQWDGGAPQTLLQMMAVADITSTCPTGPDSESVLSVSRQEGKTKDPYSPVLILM

## COc1cc(C(=O)NC2CCN(C)CC2)ccc1Nc1ncc2c(n1)N(C1CCCC1)CCC(=O)N2C(C)C
TLK1 (human)
  kinase still bound, per cent of control: 100%
[1]
  kinase still bound, per cent of control: 100%
NEK5 (human)
  kinase still bound, per cent of control: 100%
PTK6 (human)
  kinase still bound, per cent of control: 100%
NUAK2 (human)
  kinase still bound, per cent of control: 100%
TNIK (human)
  kinase still bound, per cent of control: 100%
CAMK4 (human)
  kinase still bound, per cent of control: 100%
CIT (human)
  kinase still bound, per cent of control: 100%
ABL2 (human)
  kinase still bound, per cent of control: 100%
STK35 (human)
  kinase still bound, per cent of control: 100%
ANKK1 (human)
  kinase still bound, per cent of control: 100%
PRKCD (human)
  kinase still bound, per cent of control: 0%
AURKC (human)
  kinase still bound, per cent of control: 100%
PLK3 (human)
  kinase still bound, per cent of control: 100%
BLK (human)
  kinase still bound, per cent of control: 100%
CSNK1E (human)
  kinase still bound, per cent of control: 100%
NTRK1 (human)
  kinase still bound, per cent of control: 100%
PDPK1 (human)
  kinase still bound, per cent of control: 100%
MAP4K5 (human)
  kinase still bound, per cent of control: 100%
DAPK3 (human)
  kinase still bound, per cent of control: 100%
MAP3K3 (human)
  kinase still bound, per cent of control: 100%
EPHA7 (human)
  kinase still bound, per cent of control: 100%
PIP4K2B (human)
  kinase still bound, per cent of control: 100%
CAMK1G (human)
  kinase still bound, per cent of control: 100%
PTK2B (human)
  kinase still bound, per cent of control: 100%
WEE2 (human)
  kinase still bound, per cent of control: 100%
MAP3K4 (human)
  kinase still bound, per cent of control: 100%
TSSK1B (human)
  kinase still bound, per cent of control: 100%
MELK (human)
  kinase still bound, per cent of control: 100%
PKN1 (human)
  kinase still bound, per cent of control: 100%
CaMK1 (human)
  kinase still bound, per cent of control: 100%
RIOK1 (human)
  kinase still bound, per cent of control: 100%
MAPK11 (human)
  kinase still bound, per cent of control: 100%
MYLK (human)
  kinase still bound, per cent of control: 100%
TNNI3K (human)
  kinase still bound, per cent of control: 100%
TNK1 (human)
  kinase still bound, per cent of control: 100%
CDK14 (human)
  kinase still bound, per cent of control: 100%
CSNK1G3 (human)
  kinase still bound, per cent of control: 100%
BRSK2 (human)
  kinase still bound, per cent of control: 0%
[2]
  kinase still bound, per cent of control: 100%

## Cc1ccc2nc(NCCN)c3ncc(C)n3c2c1
TLK1 (human)
  kinase still bound, per cent of control: 82%
[1]
  kinase still bound, per cent of control: 98%
NEK5 (human)
  kinase still bound, per cent of control: 100%
PTK6 (human)
  kinase still bound, per cent of control: 99%
NUAK2 (human)
  kinase still bound, per cent of control: 100%
TNIK (human)
  kinase still bound, per cent of control: 100%
CAMK4 (human)
  kinase still bound, per cent of control: 100%
CIT (human)
  kinase still bound, per cent of control: 100%
ABL2 (human)
  kinase still bound, per cent of control: 100%
STK35 (human)
  kinase still bound, per cent of control: 90%
ANKK1 (human)
  kinase still bound, per cent of control: 99%
PRKCD (human)
  kinase still bound, per cent of control: 100%
AURKC (human)
  kinase still bound, per cent of control: 100%
PLK3 (human)
  kinase still bound, per cent of control: 94%
BLK (human)
  kinase still bound, per cent of control: 100%
CSNK1E (human)
  kinase still bound, per cent of control: 58%
NTRK1 (human)
  kinase still bound, per cent of control: 100%
PDPK1 (human)
  kinase still bound, per cent of control: 100%
MAP4K5 (human)
  kinase still bound, per cent of control: 96%
DAPK3 (human)
  kinase still bound, per cent of control: 53%
MAP3K3 (human)
  kinase still bound, per cent of control: 100%
EPHA7 (human)
  kinase still bound, per cent of control: 100%
PIP4K2B (human)
  kinase still bound, per cent of control: 100%
CAMK1G (human)
  kinase still bound, per cent of control: 88%
PTK2B (human)
  kinase still bound, per cent of control: 100%
WEE2 (human)
  kinase still bound, per cent of control: 100%
MAP3K4 (human)
  kinase still bound, per cent of control: 100%
TSSK1B (human)
  kinase still bound, per cent of control: 100%
MELK (human)
  kinase still bound, per cent of control: 96%
PKN1 (human)
  kinase still bound, per cent of control: 92%
CaMK1 (human)
  kinase still bound, per cent of control: 98%
RIOK1 (human)
  kinase still bound, per cent of control: 100%
MAPK11 (human)
  kinase still bound, per cent of control: 87%
MYLK (human)
  kinase still bound, per cent of control: 79%
TNNI3K (human)
  kinase still bound, per cent of control: 100%
TNK1 (human)
  kinase still bound, per cent of control: 100%
CDK14 (human)
  kinase still bound, per cent of control: 100%
CSNK1G3 (human)
  kinase still bound, per cent of control: 100%
BRSK2 (human)
  kinase still bound, per cent of control: 100%
[2]
  kinase still bound, per cent of control: 41%
